Measured values: patent publication US8962681B2, “Use of aminoacetonitrile derivatives against endoparasites” (Zoetis LLC, priority 2011, dated 2015)

How the values were obtained:
[1] = system: Dirofilaria immitis microfilariae; assay: in vitro microwell motility assay against heartworm microfilariae; type: cell-based; details: microfilaria from canine blood, 384 well plate, 72 hours incubation at 37° C. and 5% CO2, LemnaTec Scanalyzer
[2] = system: L4 stage larvae of D. immitis; assay: L4 stage larvae motility/kill assay; type: cell-based, Dirofilaria immitis; details: screened at 10 μM in duplicate, 96-well plate; motility observed at 4, 24, 48 and 72 hours; endpoint defined as ED80 (80% of larvae killed)

| SMILES | ED50 (dose at which the overall microfilaria motility was reduced by 50% compared to that of an untreated control) [1] [µM] | active against L4 D. immitis at 10 μM [2] |
| --- | --- | --- |
| CC(C#N)(COc1ccccc1Cl)NC(=O)c1ccc(S(F)(F)(F)(F)F)cc1 (stereo not shown) [test compound 16, N-[2-(2-chlorophenoxy)-1-cyano-1-methylethyl]-4-(pentafluorothio)benzamide] | 33 | active |
| CC(C#N)(COc1cc(C#N)ccc1Oc1ccccc1)NC(=O)c1ccc(S(F)(F)(F)(F)F)cc1 (stereo not shown) [test compound 60, N-[1-cyano-2-(5-cyano-2-phenoxyphenoxy)-1-methylethyl]-4-(pentafluorothio)benzamide] | 3.3 | active |
| COc1ccc(OCC(C)(C#N)NC(=O)c2ccc(S(F)(F)(F)(F)F)cc2)c(C(F)(F)F)c1 (stereo not shown) [test compound 42, N-{1-cyano-2-[4-methoxy-2-(trifluoromethyl)phenoxy]-1-methylethyl}-4-(pentafluorothio)benzamide] | 33 | active |
| CC(C#N)(COc1ccc(F)cc1Cl)NC(=O)c1ccc(S(F)(F)(F)(F)F)cc1 (stereo not shown) [test compound 18, N-[2-(2-chloro-4-fluorophenoxy)-1-cyano-1-methylethyl]-4-(pentafluorothio)-benzamide] | 33 | active |
| CC(C#N)(COc1ccccc1C(F)(F)F)NC(=O)c1ccc(S(F)(F)(F)(F)F)cc1 (stereo not shown) [test compound 14, N-{1-cyano-1-methyl-2-[2-(trifluoromethyl)phenoxy]ethyl}-4-(pentafluorothio)-benzamide] | 10 | active |
| C[C@](C#N)(COc1ccc(C#N)cc1C(F)(F)F)NC(=O)c1ccc(S(F)(F)(F)(F)F)cc1 [test compound 51a] | 10 | active |
| Cc1ccc(C#N)cc1OCC(C)(C#N)NC(=O)c1ccc(S(F)(F)(F)(F)F)cc1 (stereo not shown) [test compound 43, N-[1-cyano-2-(5-cyano-2-methylphenoxy)-1-methylethyl]-4-(pentafluorothio)benzamide] | 10 | active |
| CC(C#N)(COc1cc(C#N)ccc1C(F)(F)F)NC(=O)c1ccc(S(F)(F)(F)(F)F)cc1 (stereo not shown) [test compound 1, N-{1-cyano-2-[5-cyano-2-(trifluoromethyl)phenoxy]-1-methylethyl}-4-(pentafluorothio)benzamide] | 10 | active |
